# According to patent US20180093104A1, “LIGHT IRRADIATION METHOD, LIGHT IRRADIATION DEVICE, LIGHT IRRADIATION SYSTEM, DEVICE SYSTEM FOR PHOTODYNAMIC DIAGNOSIS OR PHOTODYNAMIC THERAPY, SYSTEM FOR SPECIFYING TUMOR SITE AND SYSTEM FOR TREATING TUMOR” (SONY CORPORATION, priority 2015, published 2018):
# Tested on: MCF7 (Human breast adenocarcinoma-derived cell line)
# Assay: In vitro PDT experiment: calcein fluorescence viability observation after 405 nm pulse laser irradiation
# Type: cell-based
# Description: In vitro experiments of PDT were performed by using the following materials. Target cells: MCF7 (Human breast adenocarcinoma-derived cell line) Dish: φ35 mm glass bottom dish (non-coated) Culture medium: D-MEM-10% FBS-1% P/S-1 mM pyruvate sodium Photosensitizer: 10 μg/ml talaporfin Viability assay fluorescence reagent: 10 μg/ml calcein Firstly, dishes A and B in which MCF7 had been cultured in the culture medium described above were prepared. Into the dish A, talaporfin was not added, and the dish A was used as a control. Into the dish B, talaporfin at 10 μg/ml was added. […] After the irradiation, incubation was performed further for 18 hours, the cultured cells in each dish were washed twice with phosphate-buffered saline (PBS), substitution with 1 ml of calcein at 10 μg/ml was performed, and the cultured cells in each dish were observed.
smiles,measurement,setting,value
C=Cc1c(C)c2cc3nc(c(CC(=O)N[C@@H](CC(=O)O)C(=O)O)c4[nH]c(cc5nc(cc1[nH]2)C(C)=C5CC)c(C)c4C(=O)O)[C@@H](CCC(=O)O)[C@@H]3C [talaporfin],"killing of cultured cells (calcein fluorescent image, FIG. 8 vs FIG. 7)","Experiment 1: 10 μg/ml talaporfin, 24 hours incubation, pulse laser 405 nm, 120 fs, 1 mW for 30 minutes, observed 18 hours after irradiation, compared with dish A without talaporfin",significantly killed
same,killing of cultured cells in parts of the dish where irradiation had not been performed,"Experiment 2: 10 μg/ml talaporfin, 24 hours incubation, non-irradiated parts of dish B",not able to be confirmed
same,"killing of cultured cells (calcein fluorescent image, FIG. 10 vs FIG. 9)","Experiment 2: 10 μg/ml talaporfin, 24 hours incubation, pulse laser 405 nm for 10 minutes, compared with dish A without talaporfin",significantly killed
same,"killing of cultured cells (calcein fluorescent image, FIG. 12)","Experiment 3: 10 μg/ml talaporfin, 24 hours incubation, not irradiated with a pulse laser",not killed
same,"killing of cultured cells (calcein fluorescent image, FIG. 14)","Experiment 4: 10 μg/ml talaporfin, 1.5 hours incubation, pulse laser 405 nm for 10 minutes",the cells were alive
